Source: patent publication US7745574B2, “Compounds that regulate apoptosis” (The Burnham Institute, priority 2005, dated 2010)
[ ]: non-standard residue; d: D form. Ahx = NCCCCCC(=O)O

Tests used:
breast cancer = assay: Treatment of a patient diagnosed with breast cancer; assay type: in vivo; conditions: intravenous dose at regular intervals over six weeks
From the text: A patient diagnosed with breast cancer is selected for treatment with the D-NuBCP-9-r8 peptide. The patient is given a therapeutically effective intravenous dose of the peptide at regular intervals over a six week period. Following the end of the treatment period it is observed that the breast cancer has regressed.

Bcl-2 [1] = molecular target: T1, Bcl-2 (Homo sapiens, UniProt P10415); assay: Competition assay of Nur77/ΔDBD binding with Bcl-2; design: expressed in transfected cells; host or cells: HEK293T
Procedure: Nur77/Bcl-2 interaction assays—Reporter gene assays using NurRE-tk-CAT in CV-1 cells, and GST pull-down assay were described previously (Li, et al. 2000 Science 289:1159-1164). For the mammalian two-hybrid assays, CV-1 cells were co-transfected with pcDNA-Gal4TAD-Nur77 or pcDNA-Gal4TAD-Nur77/ΔDBD and pcDNA-Gal4 DBD-Bcl-2/ΔTM along with a luciferase reporter gene driven by four copies of the Gal-4-binding site. The cells were harvested and reporter gene activity was measured. For Co-IP assays, HEK293T cells were transiently transfected with various expression plasmids using a modified calcium phosphate precipitation method (Wu et al, 1997) in the presence of caspase inhibitors (zVAD-fmk) to prevent degradation of Nur77 protein due to apoptosis. Cells were suspended in lysis buffer (50 mM Tris-HCl, PH7.4; 150 mM NaCl; 20 mM EDTA; 1% NP-40; 1 mM PMSF; 50 μg/ml Leupeptin; […] Aprotinin; 0.1 mM Na3VO4; and 1 mM DTT). Cells extracts were cleared by incubation with the Protein A/G plus Agarose beads (Santa Cruz) and then incubated with appropriate antibody and 30 μl of Protein A or G plus Agarose beads overnight at 4° C. […] Immunoreactive products were detected by chemiluminescence with an enhanced chemiluminescence system (ECL) (Amersham).
Target sequence in this assay (P10415 whole entry, the tested form may be a part): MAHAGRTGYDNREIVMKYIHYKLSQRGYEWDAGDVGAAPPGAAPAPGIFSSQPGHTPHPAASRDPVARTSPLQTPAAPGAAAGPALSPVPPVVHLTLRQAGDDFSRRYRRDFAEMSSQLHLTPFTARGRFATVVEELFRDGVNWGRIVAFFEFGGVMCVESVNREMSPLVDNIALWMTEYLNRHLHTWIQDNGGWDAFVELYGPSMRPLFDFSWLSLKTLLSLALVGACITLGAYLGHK

Bcl-2 [2] = molecular target: T1, Bcl-2; assay: Immunoprecipitation of endogenous Bcl-2 by anti-Bcl-2/BH3 antibody in treated cells; assay type: cell-based; design: precipitated endogenous Bcl-2 in cells treated with L-NuBCP-9-r8 or D-NuBCP-9-r8; endogenous in cells
Target sequence in this assay (P10415 whole entry, species assumed, the tested form may be a part): as the sequence (P10415 whole entry, the tested form may be a part) above

[3] = system: MDA-MB435 breast carcinoma cells; assay: MDA-MB435 tumors in SCID mice; assay type: in vivo
Procedure: Animal studies. Female SCID mice (6-week-old) (Tacomic) were injected with 10^6 MDA-MB435 breast carcinoma cells. Tumors were palpable on day 7. On days 10 and 13, test peptides (620 μg in 50 μL PBS) were injected into the tumor areas of 5 mice. Tumor volumes (1×w^2) were determined using calipers. No weight changes were observed. Established tumors in control mice were injected with test peptides and tumor tissues were excised and sectioned after 3 days. Tissues were fixed (10% buffered formalin), then rapidly paraffin-embedded. Apoptosis was detected by the TUNEL assay.

H460 lung cancer cells [4] = assay: Apoptosis in H460 lung cancer cells; assay type: cell-based; conditions: H460 cells; peptides conjugated with CPP, 10 μM
H460 lung cancer cells [5] = assay: Apoptosis in H460 lung cancer cells; assay type: cell-based
Procedure: Bcl-2 siRNAs and antisense oligonucleotides-The target siRNA SMARTpools for Bcl-2 and Bak and the siRNA oligonucleotide for Nur77 (5'-[…] NO: 67) were purchased from Dharmacon Research Inc. Target or control siRNA were transfected at a final concentration of 200 nM into cells at 40% confluency using Oligofectamine reagent (Invitrogen) according to the manufacturer's recommendations. After 48 h, cells were analyzed. Bcl-2 antisense oligonucleotide targeting Bcl-2 and negative control oligonucleotides were obtained from Calbiochem. […] The percentages of apoptotic cells were determined by counting 300 GFP-positive cells, scoring cells having nuclear fragmentation and/or chromatin condensation. Cell culture. […] HEK293T embryonic kidney cells were grown in DME medium supplemented with 10% FBS. Jurkat and Jurkat cells stably expressing Bcl-2 were kindly provided by Dr. John Reed, and they were maintained in RPMI1640 medium.

Bcl-2 [6] = molecular target: T1, Bcl-2; assay: Bcl-2 conformational change, anti-Bcl-2/BH3 antibody staining of HEK293T cells transfected with Bcl-2; assay type: cell-based; design: expressed in transfected cells; host or cells: HEK293T
Procedure: Such a Bcl-2 conformation is recognized by an anti-Bcl-2 antibody raised against the Bcl-2 BH3 domain. To determine whether NuBCP-9 induced a Bcl-2 conformational change, flow cytometric assays were conducted which HEK293T cells transfected with Bcl-2 were exposed to NuBCPs and subsequently stained with the anti-Bcl-2/BH3 antibody.
Target sequence in this assay (P10415 whole entry, the tested form may be a part): as above

## acetyl------------fsrslhsllGXrrrrrrrr-amide (Ac-[dF][dS][dR][dS][dL][dH][dS][dL][dL]G[Ahx][dR][dR][dR][dR][dR][dR][dR][dR]-NH2; SMILES CC(=O)N[C@H](Cc1ccccc1)C(=O)N[C@H](CO)C(=O)N[C@H](CCCNC(=N)N)C(=O)N[C@H](CO)C(=O)N[C@H](CC(C)C)C(=O)N[C@H](Cc1c[nH]cn1)C(=O)N[C@H](CO)C(=O)N[C@H](CC(C)C)C(=O)N[C@H](CC(C)C)C(=O)NCC(=O)NCCCCCC(=O)N[C@H](CCCNC(=N)N)C(=O)N[C@H](CCCNC(=N)N)C(=O)N[C@H](CCCNC(=N)N)C(=O)N[C@H](CCCNC(=N)N)C(=O)N[C@H](CCCNC(=N)N)C(=O)N[C@H](CCCNC(=N)N)C(=O)N[C@H](CCCNC(=N)N)C(=O)N[C@H](CCCNC(=N)N)C(N)=O) [D-NuBCP-9-r8]
Breast cancer
  breast cancer outcome after treatment: regressed
Bcl-2 [1]
  binding of Nur77/ΔDBD with Bcl-2 in presence of peptide: abrogated
Bcl-2 [2]
  precipitation of endogenous Bcl-2 by anti-Bcl-2/BH3 antibody: precipitated
[3]; SCID mice, 620 μg injected into tumor areas on days 10 and 13, vs control NuBCP-9/AA-r8
  growth of tumors: dramatically suppressed
[3]; TUNEL assay
  apoptosis of tumor cells in vivo: potently induced
H460 lung cancer cells [4]
  apoptotic effect: retained and even slightly enhanced
H460 lung cancer cells [5]; Bcl-2 antisense oligonucleotides
  apoptotic function after Bcl-2 antisense oligonucleotides: attenuated
H460 lung cancer cells [5]; H460 cells, Bcl-2 siRNA vs control GFP siRNA
  apoptotic effect after transfection of Bcl-2 siRNA: inhibited
Bcl-2 [6]; flow cytometry
  Bcl-2 immunofluorescence by anti-Bcl-2/BH3 antibody: strong Bcl-2 immunofluorescence
Bcl-2 [6]; fluorescence microscopy
  Bcl-2 staining by anti-Bcl-2/BH3 antibody: strongly stained
